“And” between values parts separate entries of the source, which are not always exact repeats. Identical values can stand only once. Like-named read-outs stand apart in the source and are kept apart here.
Columns and labels:
GFP-TRKB = biological target: T1, GFP-TRKB (Mus musculus, UniProt P15209); assay: Microscale thermophoresis (MST) in lysates of GFP-TRKB expressing HEK293T cells; assay type: binding; settings: CHOL 10–100 μM, 15 min, HEK293T cell lysates; read-out: affinity of direct interaction with GFP-TRKB (MST)
T1 construct: wild-type GFP-tagged full length TRKB or the GFP-tagged Y433F TRKB mutant; host or cells: HEK293T
Method: Microscale Thermophoresis - MST - experiments were performed using Monolith NT.115 (Blue/Red) instrument (NanoTemper Technologies GmbH, Germany). The cell lysates of HEK293T cells expressing GFP-TRKB were used as a source of fluorescently labeled TRKB. HEK293T cells were transfected with GFP-fused TRKB as described and lysed 24h after transfection. […] The lysates of non-transfected HEK293T cells were used to evaluate background fluorescence, which appeared to be undetectable in current MST set up. […] The measurements were done in premium coated capillaries (NanoTemper Technologies GmbH, MO-K025) using LED source with 470nm and 50% infrared-laser power at 25°C. Hill model was used to evaluate binding affinity, each data point represents mean ΔFnorm values from four independent experiments. The bound fraction of the GFP-TRKB was determined and the fitting was performed using the Hill model method incorporated by the MO Affinity Analysis v2.3 software (NanoTemper Technologies).

TRKB:PLC-γ1 interaction = TRKB:PLC-γ1 interaction ELISA in MG87 cells expressing TRKB; assay type: cell-based, mouse; settings: cholesterol 20 μM/15 min
Method: The cell line NIH 3T3 (mouse fibroblasts) stably transfected to express TRKB or TRKA (MG87.TRKB or MG87.TRKA, respectively) were used for in vitro assays ([Antila et al., 2014]), N2A and HEK293T cells were used to overexpress GFP-tagged TRKB for binding assays. The cells were maintained at 5% CO2, 37°C in Dulbecco’s Modified Eagle’s Medium (DMEM, containing 10% fetal calf serum, 1% penicillin/streptomycin, 1% L-glutamine, and, in the case of MG87.TRKB cells, with […] of G418). The cell lines used in the present study were not authenticated or genotyped for sex.
The TRKB:pY (phosphorylated TRKB), TRKB:PLC-γ1, PLC-γ1:pTRKB.Y816 interactions and were determined by ELISA, based on the general method described in literature ([Antila et al., 2014]; [Fred et al., 2019]), with minor adjustments. Briefly, white 96-well plates (OptiPlate 96F-HB, Perkin Elmer) were coated with capturing anti-TRKB or PLC-γ1 antibody (1:1000) in carbonate buffer (pH = 9.8) overnight (ON) at 4°C. Following a blocking step with 2%BSA in TBS-T (2 h, RT), samples were incubated ON at 4°C. […] Finally, the chemiluminescent signal generated by the reaction with ECL was analyzed in a plate reader (Varioskan Flash, Thermo Scientific).

mice = assay: Object location memory (OLM) test; assay type: in vivo, mouse
Method: Object-location memory (OLM): this test was performed in a square arena (28cm side) with opaque walls containing cues (black stripes or spots). The adult male and female mice (18-22 weeks old) were placed for 3 consecutive days (15min per session) in the arena with two identical objects (table tennis balls glued to caps of 50ml Falcon tubes) in the same position throughout the sessions (pretest).

TRKB.T1ΔEC = assay: Cell-free ligand binding assay, TRKB deletion construct; settings: construct with TMD and short juxtamembrane sequences only
[1] = prefrontal cortex, individual mice; for FLX uM**: fluoxetine MW 309g/mol
Sprague-Dawley rats = assay: BDNF-induced LTP in dentate gyrus of anesthetized rats; assay type: in vivo, rat; settings: anesthetized rats, 2 μl of 1 ug/ul over 30 min
Method: In vivo electrophysiology. Intrahippocampal BDNF infusion was performed as described previously ([Messaoudi et al., 1998]). The experiments were carried out on 20 adult male Sprague-Dawley rats (15 weeks old, Janvier, France). Rats were housed in the animal facility for 1-week prior to the start of drug administration. […]
For electrophysiological experiments, rats were anesthetized with an intraperitoneal injection of urethane (U2500, Sigma-Aldrich) 1.5 g/kg body weight, positioned in a stereotaxic frame. The body temperature was constantly monitored and maintained at 37°C with an electric heating pad. Holes were drilled in the skull and a concentric bipolar stimulating electrode (Tip separation 500micrometers; SNEX 100; Rhodes Medical Instruments, Woodland Hills, CA) was positioned in the angular bundle for stimulation of the medial perforant path (7.9 mm posterior to bregma, 4.2 mm lateral to the midline, and 2.5 mm below the dura. […]
Responses were allowed to stabilize for 1 hour at a stimulation intensity that produced a population spike 30% of maximum. […] Evoked responses were recorded for 120 min post infusion. Recorded field potentials were amplified, filtered (0.1 Hz to 10 kHz), and digitized (25 kHz). Electrophysiological data was analyzed using Datawave Technologies Software company. […]

T1 sequence (P15209 32-821): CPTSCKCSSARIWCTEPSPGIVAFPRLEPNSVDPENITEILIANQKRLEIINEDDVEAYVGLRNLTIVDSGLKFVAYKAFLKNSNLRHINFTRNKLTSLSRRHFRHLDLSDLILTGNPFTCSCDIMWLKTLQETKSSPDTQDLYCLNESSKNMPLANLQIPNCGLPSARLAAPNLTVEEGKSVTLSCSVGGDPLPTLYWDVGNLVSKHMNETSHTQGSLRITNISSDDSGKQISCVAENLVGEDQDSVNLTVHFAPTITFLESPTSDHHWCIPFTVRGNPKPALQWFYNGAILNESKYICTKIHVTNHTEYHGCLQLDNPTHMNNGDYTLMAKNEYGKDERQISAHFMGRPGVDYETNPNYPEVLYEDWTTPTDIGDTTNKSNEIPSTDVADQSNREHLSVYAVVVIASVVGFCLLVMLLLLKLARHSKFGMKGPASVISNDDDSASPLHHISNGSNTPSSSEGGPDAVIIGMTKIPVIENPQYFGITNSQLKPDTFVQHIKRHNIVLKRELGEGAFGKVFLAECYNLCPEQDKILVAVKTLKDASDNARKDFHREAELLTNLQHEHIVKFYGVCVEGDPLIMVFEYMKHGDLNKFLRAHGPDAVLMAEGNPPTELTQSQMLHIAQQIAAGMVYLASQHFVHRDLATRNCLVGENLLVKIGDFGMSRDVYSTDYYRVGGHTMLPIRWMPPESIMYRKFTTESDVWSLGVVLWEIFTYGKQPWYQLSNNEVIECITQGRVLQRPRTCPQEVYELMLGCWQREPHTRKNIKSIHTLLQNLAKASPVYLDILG

In the case of `CC(C)CCC[C@@H](C)[C@H]1CC[C@H]2[C@@H]3CC=C4C[C@@H](O)CC[C@]4(C)[C@H]3CC[C@]12C` [CHOL, cholesterol], the Kd (GFP-TRKB) is reported as about 20 µM and the “interaction of TRKB with PLC-γ1” value (TRKB:PLC-γ1 interaction) is reported as “promoted the interaction of TRKB”.

For `CNCCC(Oc1ccc(C(F)(F)F)cc1)c1ccccc1` (stereo not shown) [FLX, fluoxetine], the “response in OLM test” value (mice; BDNF haploinsufficient mice) was “lack of response”, the “long-term memory in OLM test” value (mice; TRKB.wt mice, FLX 15 mg/kg/day for 7 days) was “facilitated long-term memory” and the “response in OLM test” value (mice; animals co-treated with pravastatin) was “lack of response”. The “response in OLM test” value (mice; serotonin transporter knockout (5HTT.ko) mice) was “responded to FLX treatment normally”, the “binding to TRKB.T1ΔEC” value (TRKB.T1ΔEC) was “robust binding” and the FLX ([1]; genotype het, 15mg/kg in drinking water 21 days, 15 mg/kg) was 1.368 µg/mL and 0.379 µg/mL and 2.739 µg/mL. The “FLX” value ([1]; genotype het, brain density 1.045g/ml) was 9.69 µg/mL and 6.28 µg/mL and 21.21 µg/mL, the “FLX uM**” value ([1]; genotype het) was 31.36 µM and 20.34 µM and 68.63 µM and the “FLX ug/g wet tissue” value ([1]; genotype het) was 9.273 ug/g wet tissue and 6.013 ug/g wet tissue and 20.292 ug/g wet tissue. For the same molecule, the FLX ([1]; genotype wt, 15mg/kg in drinking water 21 days, 15 mg/kg) was 1.575 µg/mL and 1.642 µg/mL and 1.024 µg/mL and 1.497 µg/mL and 0.393 µg/mL, the “FLX” value ([1]; genotype wt, brain density 1.045g/ml) was 4.03 µg/mL and 11.14 µg/mL and 6.93 µg/mL and 10.29 µg/mL and 9.31 µg/mL and the “FLX uM**” value ([1]; genotype wt) was 13.04 µM and 36.06 µM and 22.42 µM and 33.30 µM and 30.13 µM. For the same molecule, the “FLX ug/g wet tissue” value ([1]; genotype wt) was 3.856 ug/g wet tissue and 10.662 ug/g wet tissue and 6.629 ug/g wet tissue and 9.846 ug/g wet tissue and 8.908 ug/g wet tissue.

B1: BDNF: brain-derived neurotrophic factor, TRKB ligand (protein, UniProt P23560 19-247, looked up)
Neurotrophic factor BDNF …: APMKEANIRGQGGLAYPGVRTHGTLESVNGPKAGSRGLTSLADTFEHVIEELLDEDQKVRPNEENNKDADLYTSRVMLSSQVPLEPPLLFLLEEYKNYLDAANMSMRVRRHSDPARRGELSVCDSISEWVTAADKKTAVDMSGGTVTVLEKVPVSKGQLKQYFYETKCNPMGYTKEGCRGIDKRHWNSQCRTTQSYVRALTMDSKKRIGWRFIRIDTSCVCTLTIKRGR
With B1 the “synaptic strength after infusion into the dentate gyrus” value (Sprague-Dawley rats) was “significantly increased synaptic strength”.

— paper PMC7938888, “Antidepressant drugs act by directly binding to TRKB neurotrophin receptors” (Cell, 2021)
